This note sets out measurements from patent EP4806898A1, “HETEROARYL DERIVATIVE COMPOUND AND USE THEREOF” (Voronoi Inc., priority 2023, dated 2025).

One assay deals with T1, recombinant USP1 protein (Homo sapiens, UniProt O94782, DEL125-138/DEL229-408/DEL608-737).
T1 sequence (O94782 with tags, fused parts or gaps DEL125-138/DEL229-408/DEL608-737): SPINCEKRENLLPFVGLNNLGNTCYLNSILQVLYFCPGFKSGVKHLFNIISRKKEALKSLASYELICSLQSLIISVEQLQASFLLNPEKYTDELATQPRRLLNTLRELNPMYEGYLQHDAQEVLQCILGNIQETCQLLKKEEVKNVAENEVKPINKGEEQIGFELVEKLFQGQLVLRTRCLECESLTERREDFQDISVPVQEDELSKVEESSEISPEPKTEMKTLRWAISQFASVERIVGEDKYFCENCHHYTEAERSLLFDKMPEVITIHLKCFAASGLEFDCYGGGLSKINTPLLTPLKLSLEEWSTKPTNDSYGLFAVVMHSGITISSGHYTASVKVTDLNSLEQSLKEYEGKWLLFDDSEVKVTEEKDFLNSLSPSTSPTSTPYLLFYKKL
Briefly: Binding affinity to recombinant USP1 protein by differential scanning fluorimetry. The following applies: read-out: ΔTm (°C). A digest of the protocol: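 Thermal shift readout: ΔTm is the compound-well melting temperature less the DMSO-well value, measured by real-time PCR. Compounds tested at 100 µM final against 0.03 mg/mL truncated USP1 (Δ1-66, Δ125-138, Δ229-408, Δ608-737) in pH 8.0 Tris buffer containing 150 mM NaCl, 2% glycerol, 1 mM DTT.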
For orientation: Differential scanning fluorimetry follows unfolding on heating by fluorescence.

Another assay deals with UWB1.289 cells. Briefly: Cell proliferation inhibitory activity in BRCA1/2-mutant or HRD-positive cells (Cell Titer-Glo). Format: cell-based. The following applies: read-out: GI50 UWB1.289 BRCA1 mut. Summed up: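 GI50 from CellTiter-Glo luminescence after 144 h compound exposure at 37 °C. Cells seeded at 1,000 per well in MEBM/RPMI1640 mix 16–24 h beforehand; […] from 10 µM down to 1.5 nM final (3-fold steps).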

Setting [1] is: compound 100 µM, 0.03 mg/mL USP1 (Δ1-66, Δ125-138, Δ229-408, Δ608-737), Tm with compound minus Tm with DMSO.
Where [2] appears, read: UWB1289, UWB1.289 cells, 144 hours after compound treatment, Cell Titer-Glo, 1.5 nM to 10 µM.

Like-named read-outs stand apart in the source and are kept apart here.

For orientation: ΔTm means the shift of the melting midpoint relative to a reference. As usually defined, the GI50 is the concentration giving 50% growth inhibition. With `COc1ncnc(C2CC2)c1-c1ncc2cc(C(=O)NC3CCN(C(C)C)CC3)n(Cc3ccc(-c4nc(C(F)(F)F)cn4C(C)C)cc3)c2n1` [Example 137, 2-(4-cyclopropyl-6-methoxypyrimidin-5-yl)-7-(4-(1-isopropyl-4-(trifluoromethyl)-1H-imidazol-2-yl)benzyl)-N-(1-isopropylpiperidin-4-yl)-7H-pyrrolo[2,3-d]pyrimidine-6-carboxamide], the ΔTm at 100 µM at recombinant USP1 protein (setting [1]) is more than 5 °C. Also, in the assay with UWB1.289 cells (setting [2]), the GI50 is less than 100 nM.

With `COc1ncnc(C2CC2)c1-c1ncc2cc(C(=O)NC3(CO)COC3)n(Cc3ccc(-c4nc(C(F)(F)F)cn4C(C)C)cc3)c2n1` [Example 138, 2-(4-cyclopropyl-6-methoxypyrimidin-5-yl)-N-(3-(hydroxymethyl)oxetan-3-yl)-7-(4-(1-isopropyl-4-(trifluoromethyl)-1H-imidazol-2-yl)benzyl)-7H-pyrrolo[2,3-d]pyrimidine-6-carboxamide], the ΔTm at 100 µM on recombinant USP1 protein (setting [1]) was more than 5 °C. Moreover, the GI50 with UWB1.289 cells (setting [2]) was less than 100 nM.

Take `COc1ncnc(C2CC2)c1-c1ncc2cc(C(=O)N(C)CC3COC3)n(Cc3ccc(-c4nc(C(F)(F)F)cn4C(C)C)cc3)c2n1` [Example 139, 2-(4-cyclopropyl-6-methoxypyrimidin-5-yl)-7-(4-(1-isopropyl-4-(trifluoromethyl)-1H-imidazol-2-yl)benzyl)-N-methyl-N-(oxetan-3-ylmethyl)-7H-pyrrolo[2,3-d]pyrimidine-6-carboxamide]: the ΔTm at 100 µM at recombinant USP1 protein was more than 5 °C. For the same compound, in the assay on UWB1.289 cells (UWB1289, 144 h), the GI50 is less than 100 nM.

For the compound `COc1ncnc(C2CC2)c1-c1ncc2cc(C(=O)NCC3(O)COC3)n(Cc3ccc(-c4nc(C(F)(F)F)cn4C(C)C)cc3)c2n1` [Example 140, 2-(4-cyclopropyl-6-methoxypyrimidin-5-yl)-N-((3-hydroxyoxetan-3-yl)methyl)-7-(4-(1-isopropyl-4-(trifluoromethyl)-1H-imidazol-2-yl)benzyl)-7H-pyrrolo[2,3-d]pyrimidine-6-carboxamide], the ΔTm at 100 µM on recombinant USP1 protein was more than 5 °C. Besides, in the assay on UWB1.289 cells (UWB1289, 144 h), the GI50 was less than 100 nM.

For the compound `COc1ncnc(C2CC2)c1-c1ncc2cc(C(=O)NCC3COC3)n(Cc3ccc(-c4nc(C(F)(F)F)cn4C(C)C)cc3)c2n1` [Example 141, 2-(4-cyclopropyl-6-methoxypyrimidin-5-yl)-7-(4-(1-isopropyl-4-(trifluoromethyl)-1H-imidazol-2-yl)benzyl)-N-(oxetan-3-ylmethyl) -7H-pyrrolo[2,3-d]pyrimidine-6-carboxamide], on recombinant USP1 protein (setting [1]), the ΔTm at 100 µM was more than 5 °C. The GI50 in the assay on UWB1.289 cells (setting [2]) was less than 100 nM.

Turning to `COc1ncnc(C2CC2)c1-c1ncc2cc(C(=O)NCC3(F)COC3)n(Cc3ccc(-c4nc(C(F)(F)F)cn4C(C)C)cc3)c2n1` [Example 142, 2-(4-cyclopropyl-6-methoxypyrimidin-5-yl)-N-((3-fluorooxetan-3-yl)methyl)-7-(4-(1-isopropyl-4-(trifluoromethyl)-1H-imidazol-2-yl)benzyl)-7H-pyrrolo[2,3-d]pyrimidine-6-carboxamide], the ΔTm at 100 µM at recombinant USP1 protein (setting [1]) was more than 5 °C. Also, the GI50 in the assay with UWB1.289 cells (setting [2]) is less than 100 nM.

As for `CNCCNC(=O)c1cc2cnc(-c3c(OC)ncnc3C3CC3)nc2n1Cc1ccc(-c2nc(C(F)(F)F)cn2C(C)C)cc1` [Example 143, 2-(4-cyclopropyl-6-methoxypyrimidin-5-yl)-7-(4-(1-isopropyl-4-(trifluoromethyl)-1H-imidazol-2-yl)benzyl) -N-(2-(methylamino)ethyl)-7H-pyrrolo[2,3-d]pyrimidine-6-carboxamide], the ΔTm at 100 µM at recombinant USP1 protein (setting [1]) is more than 5 °C. In addition, the GI50 in the assay on UWB1.289 cells (setting [2]) lay within 100 to 500 nM.

In the case of `CNC1CN(C(=O)c2cc3cnc(-c4c(OC)ncnc4C4CC4)nc3n2Cc2ccc(-c3nc(C(F)(F)F)cn3C(C)C)cc2)C1` [Example 144, (2-(4-cyclopropyl-6-methoxypyrimid in-5-yl)-7-(4-(1-isopropyl-4-(trifluoromethyl)-1H-imidazol-2-yl)benzyl) -7H-pyrrolo[2,3-d]pyrimidin-6-yl) (3-(methylamino)azetidin-1-yl)methanone], at recombinant USP1 protein (setting [1]), the ΔTm at 100 µM is more than 5 °C. Also, the GI50 with UWB1.289 cells (setting [2]) is less than 100 nM.

In the case of `CNC(=O)c1cc2cnc(-c3c(OC)ncnc3C3CC3)nc2n1Cc1ccc(-c2nc(C(F)(F)F)cn2C2CC2)cc1` [Example 145, 7-(4-(1-cyclopropyl-4-(trifluoromethyl) -1H-imidazol-2-yl)benzyl)-2-(4-cyclopropyl-6-methoxypyrimidin-5-yl)-N-methyl-7H-pyrrolo[2,3-d]pyrimidine-6-carboxamide], the ΔTm at 100 µM on recombinant USP1 protein (setting [1]) was more than 5 °C. The GI50 with UWB1.289 cells (setting [2]) was in the range of 100 to 500 nM.

Regarding `CNC(=O)c1cc2cnc(-c3c(OC)ncnc3C3CC3)nc2n1Cc1ccc(-c2nc(C(F)(F)F)cn2C(C)C)c(F)c1` [Example 146, 2-(4-cyclopropyl-6-methoxypyrimidin-5-yl)-7-(3-fluoro-4-(1-isopropyl-4-(trifluoromethyl)-1H-imidazol-2-yl)benzyl)-N-methyl-7H-pyrrolo[2,3-d]pyrimidine-6-carboxamide], the ΔTm at 100 µM on recombinant USP1 protein (setting [1]) was more than 5 °C. The GI50 in the assay with UWB1.289 cells (setting [2]) is less than 100 nM.

Turning to `CNC(=O)c1cc2cnc(-c3cccnc3OC)nc2n1Cc1ccc(-c2nc(C(F)(F)F)cn2C(C)C)cc1` [Example 147, 7-(4-(1-isopropyl-4-(trifluoromethyl)-1H-imidazol-2-yl)benzyl)-2-(2-methoxypyridin-3-yl)-N-methyl-7H-pyrrolo[2,3-d]pyrimidine-6-carboxamide], the ΔTm at 100 µM at recombinant USP1 protein (setting [1]) was more than 5 °C. In the assay on UWB1.289 cells (setting [2]), the GI50 is less than 100 nM.

Turning to `COc1ncnc(C2CC2)c1-c1ncc2cc(C(=O)NCCN3CCC3)n(Cc3ccc(-c4nc(C(F)(F)F)cn4C(C)C)cc3)c2n1` [Example 149, N-(2-(azetidin-1-yl)ethyl)-2-(4-cyclopropyl-6-methoxypyrimidin-5-yl)-7-(4-(1-isopropyl-4-(trifluoromethyl)-1H-imidazol-2-yl)benzyl)-7H-pyrrolo[2,3-d]pyrimidine-6-carboxamide], the ΔTm at 100 µM on recombinant USP1 protein (setting [1]) was more than 5 °C. Besides, the GI50 with UWB1.289 cells (setting [2]) was less than 100 nM.

Turning to `COc1ncnc(C2CC2)c1-c1ncc2cc(C(=O)NC3CC3)n(Cc3ccc(-c4nc(C(F)(F)F)cn4C)cc3)c2n1` [Example 150, N-cyclopropyl-2-(4-cyclopropyl-6-methoxypyrimidin-5-yl)-7-(4-(1-methyl-4-(trifluoromethyl)-1H-imidazol-2-yl)benzyl)-7H-pyrrolo[2,3-d]pyrimidine-6-carboxamide], the ΔTm at 100 µM on recombinant USP1 protein (setting [1]) is more than 5 °C. For the same compound, the GI50 with UWB1.289 cells (setting [2]) was less than 100 nM.

As for `COc1ncnc(C2CC2)c1-c1ncc2cc(C(=O)N[C@H](C)CO)n(Cc3ccc(-c4nc(C(F)(F)F)cn4C)cc3)c2n1` [Example 151, (R) -2-(4-cyclopropyl-6-methoxypyrimidin-5-yl)-N-(1-hydroxypropan-2-yl)-7-(4-(1-methyl-4-(trifluoromethyl)-1H-imidazol-2-yl)benzyl)-7H-pyrrolo[2,3-d]pyrimidine-6-carboxamide], on recombinant USP1 protein (setting [1]), the ΔTm at 100 µM is more than 5 °C. The GI50 in the assay with UWB1.289 cells (setting [2]) is less than 100 nM.

On to `COc1ncnc(C2CC2)c1-c1ncc2cc(C(=O)NC[C@H](O)CO)n(Cc3ccc(-c4nc(C(F)(F)F)cn4C)cc3)c2n1` [Example 152, (S)-2-(4-cyclopropyl-6-methoxypyrimidin-5-yl)-N-(2,3-dihydroxypropy 1)-7-(4-(1-methyl-4-(trifluoromethyl)-1H-imidazol-2-yl)benzyl)-7H-pyrrolo[2,3-d]pyrimidine-6-carboxamide], for which the ΔTm at 100 µM at recombinant USP1 protein (setting [1]) was more than 5 °C. In addition, the GI50 in the assay on UWB1.289 cells (setting [2]) was 100 to 500 nM.

As for `COc1ncnc(C2CC2)c1-c1ncc2cc(C(=O)NC3CCN(C)CC3)n(Cc3ccc(-c4nc(C(F)(F)F)cn4C)cc3)c2n1` [Example 153, 2-(4-cyclopropyl-6-methoxypyrimidin-5-yl)-7-(4-(1-methyl-4-(trifluoromethyl)-1H-imidazol-2-yl)benzyl)-N-(1-methylpiperidin-4-yl)-7H-pyrrolo[2,3-d]pyrimidine-6-carboxamide], the thermal shift (ΔTm) at 100 µM at recombinant USP1 protein (setting [1]) is more than 5 °C. Moreover, the GI50 with UWB1.289 cells (setting [2]) is less than 100 nM.

As for `CNC(=O)c1cc2cnc(-c3c(OC)ncnc3C3CC3)cc2n1Cc1ccc(-c2nc(C(F)(F)F)cn2C(C)C)cc1` [Example 154, 6-(4-cyclopropyl-6-methoxypyrimidin-5-yl)-1-(4-(1-isopropyl-4-(trifluoromethyl)-1H-imidazol-2-yl)benzyl)-N-methyl-1H-pyrrolo[3,2-c]pyridine-2-carboxamide], the ΔTm at 100 µM at recombinant USP1 protein (setting [1]) was more than 5 °C. Moreover, the GI50 with UWB1.289 cells (setting [2]) is less than 100 nM.

In the case of `COc1ncnc(C2CC2)c1-c1ncc2cc(C(=O)N[C@H](CO)C(C)C)n(Cc3ccc(-c4nc(C(F)(F)F)cn4C(C)C)cc3)c2n1` [Example 155, (S)-2-(4-cyclopropyl-6-methoxypyrimidin-5-yl)-N-(1-hydroxy-3-methylbutan-2-yl)-7-(4-(1-isopropyl-4-(trifluoromethyl)-1H-imidazol-2-yl)benzyl)-7H-pyrrolo[2,3-d]pyrimidine-6-carboxamide], the ΔTm at 100 µM at recombinant USP1 protein (setting [1]) was more than 5 °C. Besides, in the assay with UWB1.289 cells (setting [2]), the GI50 is less than 100 nM.
